Consider 24 molecules from patent publication US8653096B2, “Chemokine receptor antagonists and methods of use thereof” (Millennium Pharmaceuticals, Inc., priority 2001, dated 2014).

Some results are limits rather than exact numbers.

One experiment has as its target T1, RANTES/MIP-1α chemokine receptor (CCR1) in THP-1 cell membranes (Homo sapiens, UniProt P32246).
T1 construct: Membranes were prepared from THP-1 cells (ATCC #TIB202); host or cells: THP-1 cells (membrane preparation)
T1 sequence (P32246 1-355): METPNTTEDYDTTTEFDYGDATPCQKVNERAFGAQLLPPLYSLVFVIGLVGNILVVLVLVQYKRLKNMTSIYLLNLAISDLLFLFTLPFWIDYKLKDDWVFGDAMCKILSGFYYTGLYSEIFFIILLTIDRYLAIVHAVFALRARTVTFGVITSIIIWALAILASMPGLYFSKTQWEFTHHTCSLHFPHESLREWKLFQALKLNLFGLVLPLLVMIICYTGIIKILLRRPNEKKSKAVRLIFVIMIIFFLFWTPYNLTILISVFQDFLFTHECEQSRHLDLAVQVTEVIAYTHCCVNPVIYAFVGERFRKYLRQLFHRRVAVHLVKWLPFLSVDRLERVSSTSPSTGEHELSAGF
The experiment in a line: Receptor binding assay: 125I-RANTES or 125I-MIP-1α binding to THP-1 cell membranes. As to conditions: enantiomers resolved from the racemate on ChiralPak AD; test not named. The protocol:
Membranes were prepared from THP-1 cells (ATCC #TIB202). Cells were harvested by centrifugation, washed twice with PBS (phosphate-buffered saline), and the cell pellets were frozen at −70 to −85° C. The frozen pellet was thawed in ice-cold lysis buffer consisting of 5 mM HEPES (N-2-hydroxyethylpiperazine-N′-2-ethane-sulfonic acid) pH 7.5, 2 mM EDTA (ethylenediaminetetraacetic acid), 5 μg/ml each aprotinin, leupeptin, and chymostatin (protease inhibitors), and 100 μg/ml PMSF (phenyl methane sulfonyl fluoride—also a protease inhibitor), at a concentration of 1 to 5×10^7 cells/ml. This procedure results in cell lysis. The suspension was mixed well to resuspend all of the frozen cell pellet. Nuclei and cell debris were removed by centrifugation of 400×g for 10 minutes at 4° C. The supernatant was transferred to a fresh tube and the membrane fragments were collected by centrifugation at 25,000×g for 30 minutes at 4° C. The supernatant was aspirated and the pellet was resuspended in freezing buffer consisting of 10 mM HEPES pH 7.5, 300 mM sucrose, 1 μg/ml each aprotinin, leupeptin, and chymostatin, and 10 μg/ml PMSF (approximately 0.1 ml per each 10^8 cells). All clumps were resolved using a minihomogenizer, and the total protein concentration was determined using a protein assay kit (Bio-Rad, Hercules, Calif., cat #500-0002). The membrane solution was then aliquoted and frozen at −70 to −85° C. until needed.
Binding Assays utilized the membranes described above. […] The binding reactions were performed in 60 to 100 μl of a binding buffer consisting of 10 mM HEPES pH 7.2, 1 mM CaCl2, 5 mM MgCl2, and 0.5% BSA (bovine serum albumin), for 60 min at room temperature. The binding reactions were terminated by harvesting the membranes by rapid filtration through glass fiber filters (GF/B or GF/C, Packard) which were presoaked in 0.3% polyethyleneimine. The filters were rinsed with approximately 600 μl of binding buffer containing 0.5 M NaCl, dried, and the amount of bound radioactivity was determined by scintillation counting in a Topcount beta-plate counter.
Specific binding is defined as the total binding minus the non-specific binding; non-specific binding is the amount of cpm still detected in the presence of excess unlabeled Rantes or MIP-1α.
Take `CC(C)(O)c1ccc2c(c1)C(=CCCN1CCC(O)(c3ccc(Cl)cc3)C(C)(CO)C1)c1cccnc1CO2` (single isomer, unassigned) [Example 483-1, 4-(4-Chloro-phenyl)-3-hydroxymethyl-1-{3-[7-(hydroxyl-1-methyl-ethyl)-11H-10-oxa-1-aza-dibenzo[a,d]cyclohepten-5-ylidene]-propyl}-3-methyl-piperidine-4-ol]: the “relative activity of resolved enantiomers” value was “more active enantiomer”.

The experiment is the same for the next values; noted with them: inhibitor concentration required for 50% inhibition of specific binding; 125I-RANTES or 125I-MIP-1α as ligand, THP-1 cell membranes; read-out: IC50.
Broadly, the IC50 is the concentration at which inhibition is half-maximal. Regarding `CC(C)(O)c1ccc2c(c1)C(=CCCN1CCC(OCc3ccc(Cl)cc3)C1)c1cccnc1CO2` (stereo not shown) [Example 549, 2-(5-{3-[3-(4-Chloro-benzyloxy)-pyrrolidin-1-yl]-propylidene}-5,11-dihydro-10-oxa-1-aza-dibenzo[a,d]cyclohepten-7-yl)-propan-2-ol], the half-inhibitory concentration (IC50) is under 1000 nM.
On to `COc1ccc2c(c1)C(=CCCN1CCC(O)(c3ccc(C)cc3)CC1)c1cccnc1CO2` [Example 78, 1-[3-(5,11-Dihydro-7-methoxy[1]benzoxepino[2,3-b]pyridin-5-ylidene)propyl]-4-(p-toly)piperidin-4-ol], for which the half-maximal inhibitory concentration (IC50) is under 1000 nM.
Same read-out and setting: under `OC1(c2ccc(Cl)cc2)CCN(CCC=C2c3ccccc3COc3ccccc32)CC1` [Example 2, 4-(4-Chlorophenyl)-1-[3-(6,11-dihydrodibenz[b,e]oxepin-11-ylidene)propyl]piperidin-4-ol] stands under 1000 nM; under `COC1(c2ccc(Cl)cc2)CCN(CCC=C2c3cc(C(C)(C)O)ccc3OCc3ncccc32)CC1` [Example 494, 2-(5-{3-[4-(4-Chloro-phenyl)-4-methoxy-piperidin-1-yl]-propylidene}-5,11-dihydro-10-oxa-1-aza-dibenzo[a,d]cyclohepten-7-yl)-propan-2-ol], under 1000 nM.
On the same count and under the same terms, under `CCNC(=O)N(Cc1ccc(Cl)cc1)C1CCN(CCC=C2c3cc(C(C)(C)O)ccc3OCc3ncccc32)C1` (stereo not shown) [Example 569, 1-(4-Chloro-benzyl)-3-ethyl-1-(1-{3-[7-(1-hydroxy-1-methyl-ethyl)-11H-10-oxa-1-aza-dibenzo[a,d]cyclohepten-5-ylidene]-propyl}-pyrrolidin-3-yl)-urea] stands under 1000 nM; under `O=C1c2ccccc2C(=CCCN2CCC(O)(c3ccc(Cl)cc3)CC2)c2ccccc2N1CCCO` [Example 42, 4-(4-Chlorophenyl)-1-[3-(6,11-dihydro-5-(3-hydroxypropyl)-6-oxo-5H-dibenz[b,e]azepin-11-ylidene)propyl]piperidin-4-ol], under 1000 nM; under `CC(C)(O)c1ccc2c(c1)C(=CCCN1CCC(O)(c3ccc(Cl)cc3)C(N=[N+]=[N-])C1)c1cccnc1CO2` (stereo not shown) [Example 476, 3-Azido-4-(4-chloro-phenyl)-1-{3-[7-(1-hydroxy-1-methyl-ethyl)-11H-10-oxa-1-aza-dibenzo[a,d]cyclohepten-5-ylidene}-propyl}-piperidin-4-ol], under 1000 nM.
For the molecule `CC(=O)c1ccc2c(c1)C(=CCCN1CC[C@@](O)(c3ccc(Cl)cc3)C(C)(C)C1)c1cccnc1CO2` [Example 505, R-1-(5-{3-[4-(4-Chloro-phenyl)-4-hydroxy-3,3-dimethyl-piperidin-1-yl]-propylidene}-5,11-dihydro-10-oxa-1-aza-dibenzo[a,d]cyclohepten-7-yl)-ethanone], the IC50 was under 1000 nM.
Turning to `CC(C)(O)COc1ccc2c(c1)C(=CCCN1CCC(O)(c3ccc(Cl)cc3)C(C)(C)C1)c1cccnc1CO2` (stereo not shown) [Example 517, 4-(4-Chloro-phenyl)-1-{3-[7-(2-hydroxy-2-methyl-propoxy)-11H-10-oxa-1-aza-dibenzo[a,d]cyclohepten-5-ylidene]-propyl}-3,3-dimethyl-piperidin-4-ol], the IC50 is under 1000 nM.
Same read-out and setting: under `CC(C)(O)c1ccc2c(c1)C(=CCCN1CC[C@](O)(c3ccc(Cl)cc3)C(C)(C)C1)c1cccnc1CO2` [Example 502, S-4-(4-Chloro-phenyl)-1-{3-[7-(1-hydroxy-1-methyl-ethyl)-11H-10-oxa-1-aza-dibenzo[a,d]cyclohepten-5-ylidene]-propyl}-3,3-dimethyl-piperidin-4-ol] stands under 1000 nM; under `CCN(Cc1ccc(Cl)cc1)[C@@H]1CCN(CCC=C2c3cc(C(C)(C)O)ccc3OCc3ncccc32)C1` [Example 524, (R)-2-[5-(3-{3-[(4-Chloro-benzyl)-ethyl-amino]-pyrrolidin-1-yl}-propylidene)-5,11-dihydro-10-oxa-1-aza-dibenzo[a,d]cyclohepten-7-yl]-propan-2-ol], under 1000 nM.
Still for that read-out and setting: under `CC(C)(O)c1ccc2c(c1)C(=CCCN1CCC(O)(c3ccc(Cl)cc3)C(C)(CO)C1)c1cccnc1CO2` (single isomer, unassigned) [Example 483-1, 4-(4-Chloro-phenyl)-3-hydroxymethyl-1-{3-[7-(hydroxyl-1-methyl-ethyl)-11H-10-oxa-1-aza-dibenzo[a,d]cyclohepten-5-ylidene]-propyl}-3-methyl-piperidine-4-ol] stands under 1000 nM.
The same measure, in the same setting: under “1-[3-(7-Carboxy-5,11-dihydro[1]benzoxepino[2,3-b]pyridin-5-ylidene)propyl]-4-(4-chlorophenyl)piperidin-4-ol [Example 118]” stands under 1000 nM.
Regarding `CC(C)(O)c1ccc2c(c1)C(=CCCN1CCN(c3ccc(Cl)cc3C#N)CC1)c1cccnc1CO2` [Example 540, 5-Chloro-2-(4-{3-[7-(1-hydroxy-1-methyl-ethyl)-11H-10-oxa-1-aza-dibenzo[a,d]cyclohepten-5-ylidene]-propyl}-piperazin-1-yl)-benzonitrile], the IC50 is under 10000 nM.
On the same count and under the same terms, under `COc1ccc2c(c1)C(=CCN1CCC(O)(c3ccc(Cl)cc3)CC1)c1cccnc1CO2` [Example 57, 4-(4-Chlorophenyl)-1-[3-(5,11-dihydro-7-methoxy[1]benzoxepino [2,3-b]pyridin-5-ylidene)ethyl]piperidin-4-ol] stands under 10000 nM; under “1-[3-(5,11-Dihydro-7-methoxy[1]benzoxepino[2,3-b]pyridin-5-ylidene)propyl]-4-phenylpiperidine [Example 64]”, under 1000 nM.
As for “1-(2-Chlorophenylsulfonyl)-4-[3-(5,11-Dihydro-7-methoxy[1]benzoxepino[2,3-b]pyridin-5-ylidene)propyl]piperazine [Example 190]”, the IC50 is over 10000 nM.
Same read-out and setting: under `CC(C)(O)c1ccc2c(c1)C(=CCCN1CCN(c3ccc(Cl)cc3)C(C#N)C1)c1cccnc1CO2` (stereo not shown) [Example 545, 1-(4-Chloro-phenyl)-4-{3-[7-(1-hydroxy-1-methyl-ethyl)-11H-10-oxa-1-aza-dibenzo[a,d]cyclohepten-5-ylidene]-propyl}-piperazine-2-carbonitrile] stands under 10000 nM; under “4-Benzyl-1-[3-(5,11-dihydro-7-methoxy[1]benzoxepino[2,3-b]pyridin-5-ylidene)propyl]piperidin-4-ol [Example 62]”, under 10000 nM; under `CCC1CN(CCC=C2c3cc(C(C)(C)O)ccc3OCc3ncccc32)CCC1(O)c1ccc(Cl)cc1` (stereo not shown) [Example 471, 4-(4-Chloro-phenyl)-3-ethyl-1-{3-[7-(1-hydroxy-1-methyl-ethyl)-11H-10-oxa-1-aza-dibenzo[a,d]cyclohepten-5-ylidene]-propyl}-piperidin-4-ol], under 1000 nM.
As for “5-Chloro-1′-[3-(5,11-dihydro-7-methoxy[1]benzoxepino[2,3-b]pyridin-5-ylidene)propyl]spiro[isobenzofuran-1(3H), 4′-piperidine] [Example 91]”, the IC50 is under 1000 nM.
Still for that read-out and setting: under `CCCCN1C(=O)c2ccccc2C(=CCCN2CCC(O)(c3ccc(Cl)cc3)CC2)c2ccccc21` [Example 41, 1-[3-(5-n-Butyl-6,11-dihydro-6-oxo-5H-dibenz[b,e]azepin-11-ylidene)propyl]-4-(4-chlorophenyl)-piperidin-4-ol] stands under 1000 nM; under `COC(=O)COc1ccc2c(c1)C(=CCCN1CCC(O)(c3ccc(Cl)cc3)C(C)(C)C1)c1cccnc1CO2` (stereo not shown) [Example 514, (5-{3-[4-(4-Chloro-phenyl)-4-hydroxy-3,3-dimethyl-piperidin-1-yl]-propylidene}-5,11-dihydro-10-oxa-1-aza-dibenzo[a,d]cyclohepten-7-yloxy)-acetic acid methyl ester], under 1000 nM.
The same measure, in the same setting: under “4-(3,5-dichlorophenyl)-1-[3-(5,11-dihydro-7-methoxy[1]benzoxepino[2,3-b]pyridin-5-ylidene)propyl]piperidin-4-ol [Example 146]” stands over 10000 nM.
